From US20260334439A1, “BCAT2 INHIBITORS” (Agios Pharmaceuticals, Inc., priority 2023, published 2026)

Molecular target: T1, BCAT2 (Homo sapiens, UniProt O15382)
T1 sequence (O15382 28-392): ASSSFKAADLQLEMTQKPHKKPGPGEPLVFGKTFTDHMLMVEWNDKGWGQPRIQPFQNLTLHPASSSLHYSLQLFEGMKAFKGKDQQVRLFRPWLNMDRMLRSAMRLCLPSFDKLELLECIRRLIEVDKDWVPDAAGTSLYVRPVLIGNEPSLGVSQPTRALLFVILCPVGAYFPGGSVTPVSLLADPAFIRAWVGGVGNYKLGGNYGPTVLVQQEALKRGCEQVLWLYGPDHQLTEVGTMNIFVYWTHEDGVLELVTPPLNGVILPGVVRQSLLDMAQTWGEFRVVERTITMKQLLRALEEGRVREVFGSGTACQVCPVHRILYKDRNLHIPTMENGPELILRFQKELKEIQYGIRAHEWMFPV
Assay: BCAT2 in vitro enzyme inhibition assay (hBCAT2, glutamate dehydrogenase/diaphorase/resazurin coupled fluorescence read)
Assay type: biochemical
Settings: hBCAT2, 1 h preincubation at 25° C., one hour reaction; average where tested multiple times
Procedure: • 2×Buffer: 200 mM Tris pH 8.0, 300 mM NaCl, 0.1% BSA • 1.67×hBCAT2 Enzyme Mix: 0.33 μg/mL hBCAT2, 1× Buffer • 2.5×Substrate Mix: 460 µM L-leucine, 420 µM α-KetoGlutarate, 10 U/mL glutamate dehydrogenase, 10 mM NAD, […] diaphorase, […] Resazurin
BCAT2 enzyme stock solution was diluted to prepare a 1.67×hBCAT2 Enzyme Mix. 1 μL of test compound was first added to the reaction wells followed by 30 μL of 1.67×hBCAT2 Enzyme Mix and incubated at room temperature (25° C.) for one hour. Meanwhile the Substrate Mix was prepared. The reaction was initiated by the addition of 20 μL of the 2.5×Substrate Mix, bringing the final reaction mix of all components to 1×. Reactions were quenched after one hour by the addition of 25 μL of 6% SDS and reaction progress was measured via fluorescence read (Ex 540/Em 590).
Test compounds were prepared at 50×final concentration in DMSO, 1 to 3 dilutions were made for 10 points. The compounds were added to the assay as a 1 to 50 dilution (1 μL in 50 μL) to yield a top assay final concentration of 100 μM, decreasing 3-fold for 10 points. Each compound dilution series test also included an assay max (1 μL DMSO Added in lieu of compound, Full Reaction Components Included) and Min (1 μL DMSO Added in lieu of compound, 30 μl of 1.67×hBCAT2 Enzyme Mix replated by 30 μL of 1×Buffer). All tests were performed in technical duplicate.
Where a compound was tested multiple times, the average value of the tests is reported.

SMILES: CCN1C[C@H](NC(=O)c2cc(F)ccn2)C[C@H](n2c(-c3ccccc3F)nc3cnc(-c4nc[nH]n4)cc32)C1 [Example 148, N-((3R,5S)-1-ethyl-5-(2-(2-fluorophenyl)-6-(1H-1,2,4-triazol-3-yl)-1H-imidazo[4,5-c]pyridin-1-yl)piperidin-3-yl)-4-fluoropicolinamide]
- IC50: < 100 nM

SMILES: CCN1C[C@@H](NC(=O)c2cc(F)ccn2)C[C@@H](n2c(-c3ccccc3F)nc3cnc(-c4nc[nH]n4)cc32)C1 [Example 149, N-((3S,5R)-1-ethyl-5-(2-(2-fluorophenyl)-6-(1H-1,2,4-triazol-3-yl)-1H-imidazo[4,5-c]pyridin-1-yl)piperidin-3-yl)-4-fluoropicolinamide]
- IC50: 500 to 1000 nM

SMILES: CN1C[C@@H](NC(=O)c2cc(Cl)ccc2OCCO)C[C@@H](n2c(-c3ccccc3F)nc3cnc(-c4nc[nH]n4)cc32)C1 [Example 151, 5-chloro-N-((3S,5R)-5-(2-(2-fluorophenyl)-6-(1H-1,2,4-triazol-3-yl)-1H-imidazo[4,5-c]pyridin-1-yl)-1-methylpiperidin-3-yl)-2-(2-hydroxyethoxy)benzamide]
- IC50: 100 to 500 nM

SMILES: CN1C[C@@H](NC(=O)c2cc(F)ccc2F)C[C@@H](n2c(-c3ccccc3F)nc3cnc(-c4nc[nH]n4)cc32)C1 [Example 152, 2,5-difluoro-N-((3S,5R)-5-(2-(2-fluorophenyl)-6-(1H-1,2,4-triazol-3-yl)-1H-imidazo[4,5-c]pyridin-1-yl)-1-methylpiperidin-3-yl)benzamide]
- IC50: 100 to 500 nM

SMILES: CN1C[C@@H](NC(=O)c2cc(F)ccc2F)C[C@@H](n2c(-c3ccccc3OCCO)nc3cnc(-n4nccn4)cc32)C1 [Example 154, 2,5-difluoro-N-((3S,5R)-5-(2-(2-(2-hydroxyethoxy)phenyl)-6-(2H-1,2,3-triazol-2-yl)-1H-imidazo[4,5-c]pyridin-1-yl)-1-methylpiperidin-3-yl)benzamide]
- IC50: > 1000 nM

SMILES: CN1C[C@H](NC(=O)c2cc(F)ccc2F)C[C@H](n2c(-c3ccccc3OCCO)nc3cnc(-n4nccn4)cc32)C1 [Example 155, 2,5-difluoro-N-((3R,5S)-5-(2-(2-(2-hydroxyethoxy)phenyl)-6-(2H-1,2,3-triazol-2-yl)-1H-imidazo[4,5-c]pyridin-1-yl)-1-methylpiperidin-3-yl)benzamide]
- IC50: < 100 nM

SMILES: CN1C[C@@H](NC(=O)c2cc(Cl)ccn2)C[C@@H](n2c(-c3ccccc3OCCO)nc3cnc(-n4nccn4)cc32)C1 [Example 156, 4-chloro-N-((3S,5R)-5-(2-(2-(2-hydroxyethoxy)phenyl)-6-(2H-1,2,3-triazol-2-yl)-1H-imidazo[4,5-c]pyridin-1-yl)-1-methylpiperidin-3-yl)picolinamide]
- IC50: > 1000 nM

SMILES: CN1C[C@H](NC(=O)c2cc(Cl)ccn2)C[C@H](n2c(-c3ccccc3OCCO)nc3cnc(-n4nccn4)cc32)C1 [Example 157, 4-chloro-N-((3R,5S)-5-(2-(2-(2-hydroxyethoxy)phenyl)-6-(2H-1,2,3-triazol-2-yl)-1H-imidazo[4,5-c]pyridin-1-yl)-1-methylpiperidin-3-yl)picolinamide]
- IC50: < 100 nM

SMILES: CN1C[C@H](NC(=O)c2cc(F)ccc2F)C[C@H](n2c(-c3ccccc3OCCO)nc3cnc(-c4ncco4)cc32)C1 [Example 158, 2,5-difluoro-N-((3R,5S)-5-(2-(2-(2-hydroxyethoxy)phenyl)-6-(oxazol-2-yl)-1H-imidazo[4,5-c]pyridin-1-yl)-1-methylpiperidin-3-yl)benzamide]
- IC50: < 100 nM

SMILES: CN1C[C@@H](NC(=O)c2cc(F)ccc2F)C[C@@H](n2c(-c3ccccc3OCCO)nc3cnc(-c4ncco4)cc32)C1 [Example 159, 2,5-difluoro-N-((3S,5R)-5-(2-(2-(2-hydroxyethoxy)phenyl)-6-(oxazol-2-yl)-1H-imidazo[4,5-c]pyridin-1-yl)-1-methylpiperidin-3-yl)benzamide]
- IC50: > 1000 nM

SMILES: CN1C[C@@H](NC(=O)c2cc(Cl)ccn2)C[C@@H](n2c(-c3ccccc3OCCO)nc3cnc(-c4ncco4)cc32)C1 [Example 160, 4-chloro-N-((3S,5R)-5-(2-(2-(2-hydroxyethoxy)phenyl)-6-(oxazol-2-yl)-1H-imidazo[4,5-c]pyridin-1-yl)-1-methylpiperidin-3-yl)picolinamide]
- IC50: > 1000 nM

SMILES: CN1C[C@H](NC(=O)c2cc(Cl)ccn2)C[C@H](n2c(-c3ccccc3OCCO)nc3cnc(-c4ncco4)cc32)C1 [Example 161, 4-chloro-N-((3R,5S)-5-(2-(2-(2-hydroxyethoxy)phenyl)-6-(oxazol-2-yl)-1H-imidazo[4,5-c]pyridin-1-yl)-1-methylpiperidin-3-yl)picolinamide]
- IC50: < 100 nM

SMILES: CN1C[C@@H](NC(=O)c2cc(F)ccn2)C[C@@H](n2c(-c3ccccc3OCCO)nc3cnc(-c4ncccn4)cc32)C1 [Example 162, 4-fluoro-N-((3S,5R)-5-(2-(2-(2-hydroxyethoxy)phenyl)-6-(pyrimidin-2-yl)-1H-imidazo[4,5-c]pyridin-1-yl)-1-methylpiperidin-3-yl)picolinamide]
- IC50: 500 to 1000 nM

SMILES: CN1C[C@H](NC(=O)c2cc(F)ccn2)C[C@H](n2c(-c3ccccc3OCCO)nc3cnc(-c4ncccn4)cc32)C1 [Example 163, 4-fluoro-N-((3R,5S)-5-(2-(2-(2-hydroxyethoxy)phenyl)-6-(pyrimidin-2-yl)-1H-imidazo[4,5-c]pyridin-1-yl)-1-methylpiperidin-3-yl)picolinamide]
- IC50: < 100 nM

SMILES: CN1C[C@H](NC(=O)c2cc(Cl)ccn2)C[C@H](n2c(-c3ccccc3OCCO)nc3cnc(-c4ncccn4)cc32)C1 [Example 164, 4-chloro-N-((3R,5S)-5-(2-(2-(2-hydroxyethoxy)phenyl)-6-(pyrimidin-2-yl)-1H-imidazo[4,5-c]pyridin-1-yl)-1-methylpiperidin-3-yl)picolinamide]
- IC50: < 100 nM

SMILES: CN1C[C@@H](NC(=O)c2cc(Cl)ccn2)C[C@@H](n2c(-c3ccccc3OCCO)nc3cnc(-c4ncccn4)cc32)C1 [Example 165, 4-chloro-N-((3S,5R)-5-(2-(2-(2-hydroxyethoxy)phenyl)-6-(pyrimidin-2-yl)-1H-imidazo[4,5-c]pyridin-1-yl)-1-methylpiperidin-3-yl)picolinamide]
- IC50: < 100 nM

SMILES: CC(=O)N1C[C@@H](NC(=O)c2cc(F)ccn2)C[C@@H](n2c(-c3ccccc3F)nc3cnc(-c4nc(C)co4)cc32)C1 [Example 166, N-((3S,5R)-1-acetyl-5-(2-(2-fluorophenyl)-6-(4-methyloxazol-2-yl)-1H-imidazo[4,5-c]pyridin-1-yl)piperidin-3-yl)-4-fluoropicolinamide]
- IC50: < 100 nM

SMILES: Cc1coc(-c2cc3c(cn2)nc(-c2ccccc2F)n3[C@@H]2CCC[C@H](N3Cc4ccc(F)cc4C3=O)[C@H]2O)n1 [Example 193, 6-fluoro-2-((1S,2S,3R)-3-(2-(2-fluorophenyl)-6-(4-methyloxazol-2-yl)-1H-imidazo[4,5-c]pyridin-1-yl)-2-hydroxycyclohexyl)isoindolin-1-one]
- IC50: < 100 nM

SMILES: NC1CC(N2Cc3ccc(F)cc3C2=O)CC(n2c(-c3ccccc3F)nc3cnc(-c4nc[nH]n4)cc32)C1 (stereo not shown) [Example 196, 2-(3-amino-5-(2-(2-fluorophenyl)-6-(1H-1,2,4-triazol-3-yl)-1H-imidazo[4,5-c]pyridin-1-yl)cyclohexyl)-6-fluoroisoindolin-1-one]
- IC50: < 100 nM

SMILES: CN1C[C@H](N2Cc3ccc(F)cc3C2=O)C[C@H](n2c(-c3ccccc3OCCO)nc3cnc(-c4nc[nH]n4)cc32)C1 [Example 197, 6-fluoro-2-((3R,5S)-5-(2-(2-(2-hydroxyethoxy)phenyl)-6-(1H-1,2,4-triazol-3-yl)-1H-imidazo[4,5-c]pyridin-1-yl)-1-methylpiperidin-3-yl)isoindolin-1-one]
- IC50: < 100 nM

SMILES: CN1C[C@@H](N2Cc3ccc(F)cc3C2=O)C[C@@H](n2c(-c3ccccc3OCCO)nc3cnc(-c4nc[nH]n4)cc32)C1 [Example 198, 6-fluoro-2-((3S,5R)-5-(2-(2-(2-hydroxyethoxy)phenyl)-6-(1H-1,2,4-triazol-3-yl)-1H-imidazo[4,5-c]pyridin-1-yl)-1-methylpiperidin-3-yl)isoindolin-1-one]
- IC50: 100 to 500 nM

SMILES: CC(=O)N1C[C@@H](N2Cc3ccc(F)cc3C2=O)C[C@@H](n2c(-c3ccccc3F)nc3cnc(-n4nccn4)cc32)C1 [Example 199, 2-((3S,5R)-1-acetyl-5-(2-(2-fluorophenyl)-6-(2H-1,2,3-triazol-2-yl)-1H-imidazo[4,5-c]pyridin-1-yl)piperidin-3-yl)-6-fluoroisoindolin-1-one]
- IC50: < 100 nM
